Test results as given in PMC4770715, “LIM kinase inhibitors disrupt mitotic microtubule organization and impair tumor cell proliferation” (Oncotarget, 2015).

Columns and labels:
YANK2 = biological target: T1, YANK2 (Homo sapiens, UniProt Q9NY57); assay: biochemical; parameters: KINOMEscan active-site competition binding, percent of control (100 = no competition); settings: competition binding, percent control
T1 construct: gene STK32B
Description: (§1) Given the potential for the use of LIMK inhibitors as cancer chemotherapeutics, a high-throughput drug discovery and medicinal chemistry program was undertaken. Details of the screening methodology and description of initial hit matter were described in [38]. […] Details of their chemical synthesis are described in Charles et al.. […] These and additional physiochemical parameters are in Supplemental Table 5. […] Kinases inhibited >25% to 50% have yellow circles, 51% to 75% have orange circles, and >76% have red circles. In each case, the size of the circle is proportional to percentage inhibition. LIMK1 and LIMK2 positions are indicated in blue. Illustration reproduced courtesy of Cell Signaling Technology, Inc. (www.cellsignal.com). B. CRT0105950 structure and kinome selectivity mapping as described above. C.

EPHB1 = EPHB1 (Homo sapiens, UniProt P54762); assay: biochemical; parameters: KINOMEscan active-site competition binding, percent of control (100 = no competition); settings: competition binding, percent control
Description: as §1

GSK3A = GSK3A (Homo sapiens, UniProt P49840); assay: biochemical; parameters: KINOMEscan active-site competition binding, percent of control (100 = no competition); settings: competition binding, percent control
Description: as §1

BLK = BLK (Homo sapiens, UniProt P51451); assay: biochemical; parameters: KINOMEscan active-site competition binding, percent of control (100 = no competition); settings: competition binding, percent control
Description: as §1

ERBB4 = ERBB4 (Homo sapiens, UniProt Q15303); assay: biochemical; parameters: KINOMEscan active-site competition binding, percent of control (100 = no competition); settings: competition binding, percent control
Description: as §1

EPHA5 = EPHA5 (Homo sapiens, UniProt P54756); assay: biochemical; parameters: KINOMEscan active-site competition binding, percent of control (100 = no competition); settings: competition binding, percent control
Description: as §1

TLK1 = TLK1 (Homo sapiens, UniProt Q9UKI8); assay: biochemical; parameters: KINOMEscan active-site competition binding, percent of control (100 = no competition); settings: competition binding, percent control
Description: as §1

RAF1 = RAF1 (Homo sapiens, UniProt P04049); assay: biochemical; parameters: KINOMEscan active-site competition binding, percent of control (100 = no competition); settings: competition binding, percent control
Description: as §1

PKNB(M.tuberculosis) = PKNB(M.tuberculosis) (Mycobacterium tuberculosis, UniProt P9WI81); assay: biochemical; parameters: KINOMEscan active-site competition binding, percent of control (100 = no competition); settings: competition binding, percent control
Description: as §1

MINK = biological target: T2, MINK (Homo sapiens, UniProt Q8N4C8); assay: biochemical; parameters: KINOMEscan active-site competition binding, percent of control (100 = no competition); settings: competition binding, percent control
T2 construct: gene MINK1
Description: as §1

TRPM6 = TRPM6 (Homo sapiens, UniProt Q9BX84); assay: biochemical; parameters: KINOMEscan active-site competition binding, percent of control (100 = no competition); settings: competition binding, percent control
Description: as §1

PDGFRB = PDGFRB (Homo sapiens, UniProt P09619); assay: biochemical; parameters: KINOMEscan active-site competition binding, percent of control (100 = no competition); settings: competition binding, percent control
Description: as §1

ICK = biological target: T3, ICK (Homo sapiens, UniProt Q9UPZ9); assay: biochemical; parameters: KINOMEscan active-site competition binding, percent of control (100 = no competition); settings: competition binding, percent control
T3 construct: gene CILK1
Description: as §1

MEK3 = biological target: T4, MEK3 (Homo sapiens, UniProt P46734); assay: biochemical; parameters: KINOMEscan active-site competition binding, percent of control (100 = no competition); settings: competition binding, percent control
T4 construct: gene MAP2K3
Description: as §1

ADCK3 = biological target: T5, ADCK3 (Homo sapiens, UniProt Q8NI60); assay: biochemical; parameters: KINOMEscan active-site competition binding, percent of control (100 = no competition); settings: competition binding, percent control
T5 construct: gene COQ8A
Description: as §1

[1] = biological target: T6, RPS6KA4(Kin.Dom.2-C-terminal) (Homo sapiens, UniProt O75676); assay: biochemical; parameters: KINOMEscan active-site competition binding, percent of control (100 = no competition); settings: competition binding, percent control
T6 construct: Kin.Dom.2-C-terminal
Description: as §1

PIK3CA(Q546K) = PIK3CA(Q546K) (Homo sapiens, UniProt P42336, Q546K); assay: biochemical; parameters: KINOMEscan active-site competition binding, percent of control (100 = no competition); settings: competition binding, percent control
Description: as §1

AKT2 = AKT2 (Homo sapiens, UniProt P31751); assay: biochemical; parameters: KINOMEscan active-site competition binding, percent of control (100 = no competition); settings: competition binding, percent control
Description: as §1

IRAK4 = IRAK4 (Homo sapiens, UniProt Q9NWZ3); assay: biochemical; parameters: KINOMEscan active-site competition binding, percent of control (100 = no competition); settings: competition binding, percent control
Description: as §1

ERK2 = biological target: T7, ERK2 (Homo sapiens, UniProt P28482); assay: biochemical; parameters: KINOMEscan active-site competition binding, percent of control (100 = no competition); settings: competition binding, percent control
T7 construct: gene MAPK1
Description: as §1

LRRK2(G2019S) = LRRK2(G2019S) (Homo sapiens, UniProt Q5S007, G2019S); assay: biochemical; parameters: KINOMEscan active-site competition binding, percent of control (100 = no competition); settings: competition binding, percent control
Description: as §1

ROCK2 = ROCK2 (Homo sapiens, UniProt O75116); assay: biochemical; parameters: KINOMEscan active-site competition binding, percent of control (100 = no competition); settings: competition binding, percent control
Description: as §1

LIMK2 = LIMK2 (Homo sapiens, UniProt P53671); assay: in vitro kinase enzyme assay; type: biochemical

Chain of LRRK2(G2019S) (Q5S007 whole entry G2019S): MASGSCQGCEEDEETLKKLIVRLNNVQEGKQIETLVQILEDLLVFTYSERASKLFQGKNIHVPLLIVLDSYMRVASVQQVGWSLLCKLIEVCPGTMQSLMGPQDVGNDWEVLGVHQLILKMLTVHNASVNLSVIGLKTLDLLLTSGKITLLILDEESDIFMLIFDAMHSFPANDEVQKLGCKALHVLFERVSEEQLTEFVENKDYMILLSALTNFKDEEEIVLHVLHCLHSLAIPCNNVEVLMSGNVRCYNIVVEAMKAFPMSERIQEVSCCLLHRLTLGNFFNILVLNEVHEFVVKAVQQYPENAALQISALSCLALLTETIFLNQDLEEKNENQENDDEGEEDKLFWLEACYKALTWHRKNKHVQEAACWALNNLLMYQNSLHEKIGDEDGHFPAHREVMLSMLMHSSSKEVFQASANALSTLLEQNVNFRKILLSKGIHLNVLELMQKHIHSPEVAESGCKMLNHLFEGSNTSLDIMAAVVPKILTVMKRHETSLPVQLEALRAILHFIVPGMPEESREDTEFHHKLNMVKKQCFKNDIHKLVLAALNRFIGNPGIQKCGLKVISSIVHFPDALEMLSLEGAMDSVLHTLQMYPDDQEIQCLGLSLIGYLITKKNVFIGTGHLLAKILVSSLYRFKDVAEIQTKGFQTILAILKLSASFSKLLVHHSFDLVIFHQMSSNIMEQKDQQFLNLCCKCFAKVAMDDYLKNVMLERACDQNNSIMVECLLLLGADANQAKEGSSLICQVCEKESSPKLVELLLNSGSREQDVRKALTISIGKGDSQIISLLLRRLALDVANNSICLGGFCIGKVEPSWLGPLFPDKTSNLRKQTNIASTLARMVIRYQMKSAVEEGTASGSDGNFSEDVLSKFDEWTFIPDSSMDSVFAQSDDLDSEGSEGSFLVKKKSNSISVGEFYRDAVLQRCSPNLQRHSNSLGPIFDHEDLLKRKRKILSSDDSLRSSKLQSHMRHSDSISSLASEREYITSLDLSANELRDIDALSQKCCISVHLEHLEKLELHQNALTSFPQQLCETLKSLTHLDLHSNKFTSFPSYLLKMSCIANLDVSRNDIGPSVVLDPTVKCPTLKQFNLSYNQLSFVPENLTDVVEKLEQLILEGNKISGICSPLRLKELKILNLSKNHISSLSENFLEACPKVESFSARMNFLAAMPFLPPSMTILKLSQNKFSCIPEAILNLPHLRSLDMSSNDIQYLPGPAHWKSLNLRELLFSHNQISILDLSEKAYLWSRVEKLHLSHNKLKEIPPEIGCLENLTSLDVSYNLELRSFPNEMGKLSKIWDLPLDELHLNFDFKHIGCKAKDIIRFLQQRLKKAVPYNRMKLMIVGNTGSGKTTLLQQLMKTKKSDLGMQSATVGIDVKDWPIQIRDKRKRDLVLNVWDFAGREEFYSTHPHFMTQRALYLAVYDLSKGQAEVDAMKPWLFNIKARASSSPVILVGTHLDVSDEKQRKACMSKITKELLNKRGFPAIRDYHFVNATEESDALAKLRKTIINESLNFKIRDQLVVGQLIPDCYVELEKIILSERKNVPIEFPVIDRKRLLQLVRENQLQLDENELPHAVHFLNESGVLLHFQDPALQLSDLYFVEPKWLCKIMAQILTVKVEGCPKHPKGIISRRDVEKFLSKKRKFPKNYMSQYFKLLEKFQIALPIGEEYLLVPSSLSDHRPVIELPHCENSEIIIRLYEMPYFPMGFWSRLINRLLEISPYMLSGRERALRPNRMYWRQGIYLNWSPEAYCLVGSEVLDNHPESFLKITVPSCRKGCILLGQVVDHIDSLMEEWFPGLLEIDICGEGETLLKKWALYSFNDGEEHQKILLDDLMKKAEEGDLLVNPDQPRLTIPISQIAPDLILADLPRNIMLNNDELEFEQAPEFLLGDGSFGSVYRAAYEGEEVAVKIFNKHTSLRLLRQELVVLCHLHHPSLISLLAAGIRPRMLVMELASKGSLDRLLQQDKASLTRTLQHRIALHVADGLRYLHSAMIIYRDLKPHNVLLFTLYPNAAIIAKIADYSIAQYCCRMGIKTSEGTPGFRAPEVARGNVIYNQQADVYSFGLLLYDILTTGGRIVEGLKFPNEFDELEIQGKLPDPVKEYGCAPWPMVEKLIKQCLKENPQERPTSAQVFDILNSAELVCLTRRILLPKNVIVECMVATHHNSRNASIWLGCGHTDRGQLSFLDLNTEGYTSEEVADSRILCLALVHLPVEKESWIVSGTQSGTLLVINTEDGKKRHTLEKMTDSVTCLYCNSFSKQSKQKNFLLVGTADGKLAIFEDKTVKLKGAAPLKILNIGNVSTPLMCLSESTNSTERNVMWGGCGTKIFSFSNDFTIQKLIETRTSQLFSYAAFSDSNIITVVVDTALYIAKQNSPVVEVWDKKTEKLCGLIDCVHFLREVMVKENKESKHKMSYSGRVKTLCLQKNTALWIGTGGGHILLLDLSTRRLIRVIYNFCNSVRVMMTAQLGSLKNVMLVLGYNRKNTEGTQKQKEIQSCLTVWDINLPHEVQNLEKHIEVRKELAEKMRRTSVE
Chain of ROCK2 (O75116 whole entry): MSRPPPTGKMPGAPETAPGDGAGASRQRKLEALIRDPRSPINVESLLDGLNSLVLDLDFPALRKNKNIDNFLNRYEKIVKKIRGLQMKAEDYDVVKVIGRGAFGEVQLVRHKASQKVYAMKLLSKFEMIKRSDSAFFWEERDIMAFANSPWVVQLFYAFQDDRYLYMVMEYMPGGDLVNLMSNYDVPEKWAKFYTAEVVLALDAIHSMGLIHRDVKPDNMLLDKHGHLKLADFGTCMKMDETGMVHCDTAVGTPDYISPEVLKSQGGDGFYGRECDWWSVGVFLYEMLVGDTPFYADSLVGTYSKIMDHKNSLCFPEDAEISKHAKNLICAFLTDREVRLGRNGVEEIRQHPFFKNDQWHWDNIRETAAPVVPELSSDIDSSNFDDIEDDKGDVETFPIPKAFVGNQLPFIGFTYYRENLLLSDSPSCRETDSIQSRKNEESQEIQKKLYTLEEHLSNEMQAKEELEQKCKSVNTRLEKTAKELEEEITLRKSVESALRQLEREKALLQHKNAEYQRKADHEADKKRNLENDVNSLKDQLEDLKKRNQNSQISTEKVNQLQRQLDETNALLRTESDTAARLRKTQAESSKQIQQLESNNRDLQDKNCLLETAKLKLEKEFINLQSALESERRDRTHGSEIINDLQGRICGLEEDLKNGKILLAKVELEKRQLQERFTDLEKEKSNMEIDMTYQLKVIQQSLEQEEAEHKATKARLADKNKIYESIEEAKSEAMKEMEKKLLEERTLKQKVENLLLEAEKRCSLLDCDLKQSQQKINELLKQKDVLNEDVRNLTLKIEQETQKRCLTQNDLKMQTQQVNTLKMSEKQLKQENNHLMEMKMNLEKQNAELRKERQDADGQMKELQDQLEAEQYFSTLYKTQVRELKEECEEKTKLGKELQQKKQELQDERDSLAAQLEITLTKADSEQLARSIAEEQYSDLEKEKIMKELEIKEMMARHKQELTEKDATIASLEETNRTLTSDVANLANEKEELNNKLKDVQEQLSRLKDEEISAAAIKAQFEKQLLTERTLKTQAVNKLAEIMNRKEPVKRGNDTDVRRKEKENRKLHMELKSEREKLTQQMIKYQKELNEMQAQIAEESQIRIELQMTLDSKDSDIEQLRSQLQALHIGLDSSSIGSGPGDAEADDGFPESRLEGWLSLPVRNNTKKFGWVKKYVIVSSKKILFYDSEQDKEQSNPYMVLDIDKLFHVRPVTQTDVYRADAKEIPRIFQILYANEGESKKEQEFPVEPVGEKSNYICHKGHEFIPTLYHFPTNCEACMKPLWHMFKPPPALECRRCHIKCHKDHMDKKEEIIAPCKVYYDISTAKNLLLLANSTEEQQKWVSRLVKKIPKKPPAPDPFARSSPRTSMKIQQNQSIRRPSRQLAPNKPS
Chain of BLK (P51451 whole entry): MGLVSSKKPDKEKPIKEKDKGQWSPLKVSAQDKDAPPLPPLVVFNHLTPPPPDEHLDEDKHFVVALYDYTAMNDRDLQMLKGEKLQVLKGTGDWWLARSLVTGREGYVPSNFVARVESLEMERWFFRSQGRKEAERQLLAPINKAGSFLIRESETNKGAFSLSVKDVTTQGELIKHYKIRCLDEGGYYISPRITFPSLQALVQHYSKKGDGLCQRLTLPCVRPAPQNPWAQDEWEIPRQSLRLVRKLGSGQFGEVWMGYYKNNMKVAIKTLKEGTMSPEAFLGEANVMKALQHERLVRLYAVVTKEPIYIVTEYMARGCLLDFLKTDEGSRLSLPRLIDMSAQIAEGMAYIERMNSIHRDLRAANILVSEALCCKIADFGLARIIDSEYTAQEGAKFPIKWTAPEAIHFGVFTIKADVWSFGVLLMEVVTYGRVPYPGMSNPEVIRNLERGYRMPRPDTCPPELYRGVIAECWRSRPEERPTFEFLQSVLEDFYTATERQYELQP
Chain of RAF1 (P04049 whole entry): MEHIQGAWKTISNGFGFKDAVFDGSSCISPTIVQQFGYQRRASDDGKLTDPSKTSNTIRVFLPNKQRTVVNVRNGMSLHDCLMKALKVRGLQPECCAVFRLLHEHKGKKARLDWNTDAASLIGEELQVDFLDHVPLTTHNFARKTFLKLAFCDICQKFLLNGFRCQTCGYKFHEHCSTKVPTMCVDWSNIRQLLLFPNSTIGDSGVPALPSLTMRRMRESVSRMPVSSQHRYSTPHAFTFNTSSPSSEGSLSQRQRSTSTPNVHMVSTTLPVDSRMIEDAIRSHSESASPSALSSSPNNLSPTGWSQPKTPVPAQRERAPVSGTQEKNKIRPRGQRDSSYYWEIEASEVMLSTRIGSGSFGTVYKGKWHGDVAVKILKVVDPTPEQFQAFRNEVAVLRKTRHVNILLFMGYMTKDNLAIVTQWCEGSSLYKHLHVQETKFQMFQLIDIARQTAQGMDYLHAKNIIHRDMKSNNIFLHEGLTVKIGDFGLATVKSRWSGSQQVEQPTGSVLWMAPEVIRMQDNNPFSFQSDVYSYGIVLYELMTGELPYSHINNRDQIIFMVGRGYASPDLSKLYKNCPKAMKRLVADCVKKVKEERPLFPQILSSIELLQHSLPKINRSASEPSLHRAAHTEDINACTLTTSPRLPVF

COc1ccc(-c2cnccc2-c2cnc(NC(=O)C(C)C)s2)c(C(F)(F)F)c1 [CRT0105446, N-{5-[3-(4-Methoxy-2-trifluoromethyl-phenyl)-pyridin-4-yl]-hiazol-2-yl}-isobutyramide]
remaining binding at 10 µM (YANK2): 100%
remaining binding at 10 µM (EPHB1): 88%
remaining binding at 10 µM (GSK3A): 56%
remaining binding at 10 µM (BLK): 100%
remaining binding at 10 µM (ERBB4): 100%
remaining binding at 10 µM (EPHA5): 100%
remaining binding at 10 µM (TLK1): 100%
remaining binding at 10 µM (RAF1): 100%
remaining binding at 10 µM (PKNB(M.tuberculosis)): 82%
remaining binding at 10 µM (MINK): 100%
remaining binding at 10 µM (TRPM6): 94%
remaining binding at 10 µM (PDGFRB): 51%
remaining binding at 10 µM (ICK): 18%
remaining binding at 10 µM (MEK3): 83%
remaining binding at 10 µM (ADCK3): 98%
remaining binding at 10 µM [1]: 57%
remaining binding at 10 µM (PIK3CA(Q546K)): 100%
remaining binding at 10 µM (AKT2): 100%
remaining binding at 10 µM (IRAK4): 100%
remaining binding at 10 µM (ERK2): 100%
remaining binding at 10 µM (LRRK2(G2019S)): 86%
remaining binding at 10 µM (ROCK2): 95%
IC50 (LIMK2): 32 nM

Cc1ccc(-c2cnccc2-c2cnc(Nc3ccc(O)cc3)s2)c(Cl)c1 [CRT0105950, 4-{5-[3-(2-Chloro-4-methyl-phenyl)-pyridin-4-yl]-thiazol-2-ylamino}-phenol]
remaining binding at 10 µM (YANK2): 100%
remaining binding at 10 µM (EPHB1): 80%
remaining binding at 10 µM (GSK3A): 32%
remaining binding at 10 µM (BLK): 9.2%
remaining binding at 10 µM (ERBB4): 94%
remaining binding at 10 µM (EPHA5): 100%
remaining binding at 10 µM (TLK1): 62%
remaining binding at 10 µM (RAF1): 85%
remaining binding at 10 µM (PKNB(M.tuberculosis)): 19%
remaining binding at 10 µM (MINK): 13%
remaining binding at 10 µM (TRPM6): 93%
remaining binding at 10 µM (PDGFRB): 1.6%
remaining binding at 10 µM (ICK): 19%
remaining binding at 10 µM (MEK3): 27%
remaining binding at 10 µM (ADCK3): 56%
remaining binding at 10 µM [1]: 72%
remaining binding at 10 µM (PIK3CA(Q546K)): 100%
remaining binding at 10 µM (AKT2): 100%
remaining binding at 10 µM (IRAK4): 80%
remaining binding at 10 µM (ERK2): 100%
remaining binding at 10 µM (LRRK2(G2019S)): 56%
remaining binding at 10 µM (ROCK2): 77%
IC50 (LIMK2): 1 nM
